Measured values from patent US12342818B2, “Formulations and methods for controlling invasive amphibians” (priority 2019, dated 2025).

Tested on: Adult cane toads (Rhinella marina)
Assay: Cane toad spray trial (formulation sprayed on ventral and/or dorsal surface)
Type: in vivo
Conditions: for Mortality Rate / Avg. Time Until Breathing & Heart Beat Not Detected / Avg. Time to Unresponsive: 48 hrs trial
Protocol: Adult cane toads (Rhinella marina) (>[…] SUL=snout-urostyle length) were collected around Townsville one or two nights prior to the trials. The toads were kept in two Nally bins with all males in one, and all females in the other for ease of sorting. […]
• 1. The compound and carrier controls were prepared on day of testing. • 2. Toads were weighed, measured and placed in individual buckets and left for 10 minutes to settle. • 3. 1.5 ml of the formulation or carrier or water was delivered to the ventral and/or dorsal surface of each toad via a spray bottle (2×1 ml sprays and accounting for approximately 0.5 ml loss during spraying). • 4. Measurements of toad behaviour and heart rate were recorded at T=5, 10, 15, 20, 25, 30, 45, 60, 75, 90, 105, 120 minutes, plus 4-6 hours, 10-12 hours, 16-18 hours and 24 hours after spraying. If toads were still unconscious but not dead (if there was a heartbeat) within 24 hours, they were checked again at 48 hours. The following measurements were taken at each time interval: • Consciousness: Righting reflex was tested by flipping toads onto their backs and their ability to right themselves was recorded as “fast,” “slow,” or “unresponsive”. Observations were made of the palpebral reflex and involuntary muscular movement: Palpebral reflex was tested by gently tapping the palpebral area with the finger and observing eyelid movement. Involuntary muscular movement was tested via the withdrawal reflex, by grasping each limb distally and extending it. • Breathing/heart rate (did the toad appear to be breathing or was there a detectable heart beat); • Side effects (any other noticeable effects of the formulation such as twitching, distress or agitation, poison gland discharge, muscle rigidness, gasping, or ventral redness).
Even when no vital signs are detected externally during the experimental process, previous studies have shown that toads may appear dead and still have a heartbeat. At the completion of the trials, all animals were anaesthetised with a lethal dose MS222 (tricaine mesylate) then dissected to determine if the heart was still beating and to look for any signs of internal necrosis.

[1] = carrier ethanol, 84.2 g/L, 2 sprays ventral + dorsal, 6 toads
[2] = carrier ethanol, 168.36 g/L, 2 sprays ventral + dorsal, 6 toads
[3] = carrier isopropanol, 84.2 g/L, 2 sprays ventral + dorsal, 6 toads
[4] = carrier isopropanol, 126.3 g/L, 2 sprays dorsal, 6 toads
[5] = carrier isopropanol, 126.3 g/L, 2 sprays dorsal, 24 toads (repeat trial)
[6] = carrier isopropanol, 140 g/L, 2 sprays dorsal, 22 toads
[7] = carrier isopropanol, 168.36 g/L, 2 sprays ventral + dorsal, 6 toads

Q: Which “Mortality Rate” value (carrier ethanol, 21.05 g/L, 2 sprays ventral + dorsal, 6 toads) does the source give for `OCCOc1ccccc1` [2-Phenoxyethanol] here?
A: Its value is 0%.

Q: And the “Avg. Time Until Breathing & Heart Beat Not Detected” value [1]?
A: The value was 405 min.

Q: What about the “Avg. Time to Unresponsive” value [1] of the same compound?
A: The value was 15 min.

Q: And the “Mortality Rate” value [1]?
A: Its value is 100%.

Q: What about the “Avg. Time Until Breathing & Heart Beat Not Detected” value [2] of the same compound?
A: Its value is 20 min.

Q: What about the “Avg. Time to Unresponsive” value [2] of the same compound?
A: Its value is 13.33 min.

Q: And the “Mortality Rate” value [2]?
A: The value was 100%.

Q: What about the “Avg. Time Until Breathing & Heart Beat Not Detected” value [3] of the same compound?
A: The value was 40.83 min.

Q: And the “Avg. Time to Unresponsive” value [3]?
A: The value was 16.67 min.

Q: What about the “Mortality Rate” value [3] of the same compound?
A: The value was 100%.

Q: And the “Avg. Time Until Breathing & Heart Beat Not Detected” value [4]?
A: The value was 23 min.

Q: And the “Avg. Time to Unresponsive” value [4]?
A: The value was 18.3 min.

Q: And the “Mortality Rate” value [4]?
A: The value was 100%.

Q: And the “Avg. Time Until Breathing & Heart Beat Not Detected” value [5]?
A: The value was 24.25 min.

Q: And the “Avg. Time to Unresponsive” value [5]?
A: The value was 18 min.

Q: And the “Mortality Rate” value [5]?
A: Its value is 95.8%.

Q: What about the “Avg. Time Until Breathing & Heart Beat Not Detected” value [6] of the same compound?
A: Its value is 22.05 min.

Q: And the “Avg. Time to Unresponsive” value [6]?
A: Its value is 17.95 min.

Q: What about the “Mortality Rate” value [6] of the same compound?
A: Its value is 100%.

Q: What about the “Avg. Time Until Breathing & Heart Beat Not Detected” value [7] of the same compound?
A: Its value is 14.17 min.

Q: What about the “Avg. Time to Unresponsive” value [7] of the same compound?
A: The value was 11.67 min.

Q: And the “Mortality Rate” value [7]?
A: The value was 100%.

Q: What about the “Avg. Time to Unresponsive” value (carrier propylene glycol, 168.36 g/L, 2 sprays ventral + dorsal, 6 toads) of the same compound?
A: The value was 15.83 min.

Q: What about the “Avg. Time to Unresponsive” value (carrier water, 168.36 g/L, 2 sprays ventral + dorsal, 6 toads) of the same compound?
A: Its value is 14.166 min.

Q: What about the “effectiveness among potential toxicants tested (in different carriers)” value (compared with benzocaine, sodium nitrite, tricaine mesylate, sodium monesnsin) of the same compound?
A: The value was “only real effective candidate”.

Q: What about the “effectiveness as toad control” value (concentration greater than 40 g/L in a carrier of either ethanol or isopropanol) of the same compound?
A: The value was “effective control”.

Q: What about the “effectiveness as toad control” value (formulations with water as a carrier) of the same compound?
A: The value was “not effective”.
